From PubChem BioAssay AID1671292 come the findings set out here.

For this test, the target named is Homeodomain-interacting protein kinase 1 (Homo sapiens) (UniProt Q86Z02). Description: HIPK1 kinase inhibitors, dose response, biochemical, Z'-LYTE, FRET, protease-coupled, direct format (AID 1671292). The note with it: Z'-LYTE FRET kinase assay, recombinant HIPK1.
Homeodomain-interacting protein kinase 1 (Homo sapiens), sequence (Q86Z02 whole entry, looked up): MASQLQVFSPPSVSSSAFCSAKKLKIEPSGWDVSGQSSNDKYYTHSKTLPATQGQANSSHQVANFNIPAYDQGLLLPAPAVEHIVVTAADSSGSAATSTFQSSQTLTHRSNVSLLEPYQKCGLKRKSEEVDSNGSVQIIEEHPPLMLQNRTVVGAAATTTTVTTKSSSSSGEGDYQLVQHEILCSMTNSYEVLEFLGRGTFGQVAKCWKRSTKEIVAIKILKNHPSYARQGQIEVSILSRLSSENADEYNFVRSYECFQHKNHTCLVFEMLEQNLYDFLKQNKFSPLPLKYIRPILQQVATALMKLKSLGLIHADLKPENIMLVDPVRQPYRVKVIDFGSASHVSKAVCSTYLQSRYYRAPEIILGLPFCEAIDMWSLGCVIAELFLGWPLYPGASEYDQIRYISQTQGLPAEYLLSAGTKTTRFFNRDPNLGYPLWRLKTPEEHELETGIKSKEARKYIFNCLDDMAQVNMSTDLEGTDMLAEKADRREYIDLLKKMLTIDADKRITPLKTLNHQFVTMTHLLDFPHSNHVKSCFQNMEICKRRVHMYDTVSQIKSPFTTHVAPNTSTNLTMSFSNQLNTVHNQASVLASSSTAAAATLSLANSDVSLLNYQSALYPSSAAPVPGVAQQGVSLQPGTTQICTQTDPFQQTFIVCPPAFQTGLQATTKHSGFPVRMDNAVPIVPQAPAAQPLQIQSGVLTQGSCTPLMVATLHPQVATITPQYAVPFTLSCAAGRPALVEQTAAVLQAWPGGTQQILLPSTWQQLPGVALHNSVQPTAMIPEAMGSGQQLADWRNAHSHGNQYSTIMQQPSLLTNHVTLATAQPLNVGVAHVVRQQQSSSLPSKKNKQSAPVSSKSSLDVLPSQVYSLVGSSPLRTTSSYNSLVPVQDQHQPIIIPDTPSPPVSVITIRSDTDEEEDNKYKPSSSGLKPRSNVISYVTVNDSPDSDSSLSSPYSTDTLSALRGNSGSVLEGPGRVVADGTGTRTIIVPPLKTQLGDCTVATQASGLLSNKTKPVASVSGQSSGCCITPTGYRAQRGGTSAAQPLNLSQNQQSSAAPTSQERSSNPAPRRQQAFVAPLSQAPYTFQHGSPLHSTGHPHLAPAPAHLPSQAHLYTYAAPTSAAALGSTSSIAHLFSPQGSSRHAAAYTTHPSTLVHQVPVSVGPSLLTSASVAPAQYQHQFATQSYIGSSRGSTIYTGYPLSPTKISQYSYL

Turning to `Brc1c(Br)c(Br)c2n[nH]nc2c1Br`, the IC50 (in general, the concentration needed to halve the response being measured) was 4.47 µM.
